Results reported in patent US20050203063A1, “Proteasome pathway inhibitors and related methods” (priority 2003, published 2005).

Tested on: HEK-293 cells stably expressing GFP-AR
Assay: Protac-induced GFP-AR degradation in microinjected HEK-293 cells
Format: cell-based
Conditions: microinjection, 100 nM
Experimental: The results are representative of experiments performed on 3 separate days.
The effect of ubistatin A on protein degradation within intact mammalian cells was also evaluated (FIG. 4). Since the negative charge of the molecule was predicted to preclude efficient entry into the cell, compound was introduced by microinjection.
HEK-293 cells stably transfected with a plasmid that expresses GFP-AR were microinjected with 0.2 pl (5-10% of cell volume) of a 200 mM KCl solution containing 10 μM Protac and 50 mg/ml rhodamine dextran (MW 10,000 Da).

CC[C@H](C)[C@H](NC(=O)[C@H]([C@@H](C)CC)N(C)C(C)=O)C(=O)N[C@H](C(=O)N[C@@H](CC(C)C)C(=O)[C@@]1(C)CO1)[C@@H](C)O [epoxomicin]
block of Protac-X induced loss of GFP-AR: completely blocked
